The values that follow are results of earlier work, collected in patent US8623409B1, “Clonidine formulation” (Tris Pharma Inc., priority 2010, dated 2014).

SMILES strings stand for the structures.

For the data set the following is noted: plasma level; see US patent application 2008/0152709.

In the case of `Clc1cccc(Cl)c1NC1=NCCN1` [clonidine, N-(2,6-dichlorophenyl)-4,5-dihydro-1H-imidazol-2-amine], the “minimum effective dose for clonidine use as an anti-hypertensive agent” value is given as 200 pg/mL.
